# Key:
# pDAT [1] = test: Time course densitometry of pDAT levels in SH-SY5Y-D3R cells; assay type: cell-based; conditions: PRX 5 nM, SK608 1 μM, SK609 1 μM; for pDAT levels, combined with / post cocaine (CC): FIG. 5B, cocaine 1 μM
# Protocol: FIGS. 5A-5B illustrate that SK609 and its analogues reduce pDAT levels when pretreated with cocaine in a time dependent manner. Time course densitometry analysis of the effects of cocaine (1 μM), PRX (5 nM), SK608 (1 μM), and SK609 (1 μM) on pDAT levels in SH-SY5Y-D3R cells. Different groups of cells were pre-treated with (FIG. 5A) CC, PRX, SK609 and SK608 or (FIG. 5B) CC, CC/PRX, CC/SK609 and CC/SK608 and were collected at the time points indicated. pDAT levels were measured and GAPDH was used as loading control. Data are presented as mean±sd from three independent experiments performed in triplicate.
# [2] = Self-administration of PRX or SK609 on fixed ratio 1 schedule before and after cocaine (FIG. 7)
# Protocol: FIG. 7A: Rats were implanted with jugular catheters and then allowed to self-administer either pramipexole (PRX; 0.25 mg/kg) or SK609 (609; 4 mg/kg) on a 6-hr, fixed ratio 1 schedule of reinforcement (Pre-Cocaine; left gray shading). After 10 days of PRX or SK609 access, rats were switched to cocaine (0.75 mg/kg). Once rats acquired cocaine self-administration behavior (defined as 20 injections of cocaine within a single 6-session) they were allowed another two days of cocaine access (Cocaine; blue shading). Only the last 3 days of cocaine self-administration are plotted. After cocaine self-administration, rats were switched back to PRX and SK609 to assess if these compounds would now maintain reinforced responding (Post-Cocaine; right gray shading). […] Data are mean±s.e.m. Student's t-test. *p<0.05.
# After 10 days of PRX or SK609 access, rats were switched to cocaine (0.75 mg/kg). Once rats acquired cocaine self-administration behavior (defined as 20 injections of cocaine within a single 6-session) they were allowed another two days of cocaine access (Cocaine; blue shading). Only the last 3 days of cocaine self-administration are plotted. After cocaine self-administration, rats were switched back to PRX and SK609 to assess if these compounds would now maintain reinforced responding (Post-Cocaine; right gray shading).
# Data are mean±s.e.m. Student's t-test. *p<0.05.
# [3] = Cocaine self-administration on Progressive Ratio (PR) schedule, motivation for cocaine; assay type: in vivo, rodent; conditions: i.p. 2 mg/kg or 4 mg/kg SK609
# Protocol: FIGS. 2A-2B illustrate that SK609 reduces motivation for cocaine in a rodent self-administration model. […] (FIG. 2A) Breakpoints and (FIG. 2B) lever presses following i.p. vehicle, 2 mg/kg or 4 mg/kg SK609. Data are expressed as the mean±s.e.m., percent of baseline responding. *P<0.05.
# (FIG. 2A) Breakpoints and (FIG. 2B) lever presses following i.p. vehicle, 2 mg/kg or 4 mg/kg SK609. Data are expressed as the mean±s.e.m., percent of baseline responding. *P<0.05.
# pDAT [4] = test: Western blot / densitometry of pDAT in striatal synaptosomes of cocaine-treated rats; assay type: in vivo; conditions: cocaine 15 mg/kg pre-treatment, SK609 4 mg/kg
# Protocol: (FIG. 4A) Representative western blots for pDAT, tDAT, D3R, βarr2 and GAPDH on striatal synaptosomes derived from rats treated with either saline (sal) or cocaine (CC) (15 mg/kg) or SK609 (4 mg/kg) or Pramipexole (PRX; (S)-N^6-propyl-4,5,6,7-tetrahydro-1,3-benzothiazole-2,6-diamine) (0.25 mg/kg) with and without cocaine pre-treatment. […] (FIG. 4B) Densitometry analysis of pDAT expression. Data are presented as mean s.e.m. from 3 independent experiments from n=3 rats/group. *p<0.05, **p<0.001.
# (FIG. 4A) Representative western blots for pDAT, tDAT, D3βarr2 and GAPDH on striatal synaptosomes derived from rats treated with either saline (sal) or cocaine (CC) (15 mg/kg) or SK609 (4 mg/kg) or Pramipexole (PRX) (0.25 mg/kg) with and without cocaine pre-treatment. (FIG. 4B) Densitometry analysis of pDAT expression. Data are presented as mean±s.e.m. from 3 independent experiments from n=3 rats/group. *p<0.05, **p<0.001.
# [5] = test system: dopamine transporter (DAT); test: Fast scan cyclic voltammetry of dopamine release and uptake in nucleus accumbens core tissue after i.p. dosing; assay type: in vivo, rats; conditions: for dopamine release at baseline: FIG. 8B; for dopamine release at baseline / dopamine uptake at baseline: naive rats, i.p. 30 min prior to sacrifice, PRX 0.25 mg/kg, SK608 4 mg/kg, SK609 4 mg/kg, vs saline; for dopamine uptake at baseline: FIG. 8C; for dopamine release after bath-applied cocaine: FIG. 8D; for dopamine release after bath-applied cocaine / inhibition of dopamine uptake by cocaine: same dosing, cocaine bath applied to tissue; for inhibition of dopamine uptake by cocaine: FIG. 8E
# Protocol: (§1) (FIG. 3A) DA release, (FIG. 3B) DA uptake (Vmax), and (FIG. 3C) DAT sensitivity to cocaine (inhibition of DA uptake; app Km) following vehicle (Veh) or 4 mg/kg SK609.
# (§2) Naive rats were injected intraperitoneally with saline (SAL), pramipexole (PRX; 0.25 mg/kg), SK608 (608; 4 mg/kg), or SK609 (609; 4 mg/kg) 30 min prior to sacrifice. […] (FIG. 8A) Example dopamine traces, (FIG. 8B) dopamine release and (FIG. 8C) dopamine uptake at baseline, (FIG. 8D) dopamine release and (FIG. 8E) inhibition of dopamine uptake. Data are mean±s.e.m.
# as §1
# as §2, with “mean s.e.m.” for “mean±s.e.m.”
# [6] = SK609 self-administration in rats (FIG. 1); assay type: in vivo; conditions: rats given access to 4 mg/kg SK609; comparison 0.75 mg/kg cocaine
# Protocol: (§3) Shown are injections taken for rats given access to 4 mg/kg SK609 and 0.75 mg/kg cocaine. Dashed line represents acquisition criteria which required 4 consecutive days of 10 injections per session. Cocaine data are aligned to the first day in which rats met acquisition criteria. Data represent mean±s.e.m. *p<0.05, ***p<0.001.
# as §3, with “Shown in FIG. 1” for “Shown”, “mean s.e.m.” for “mean±s.e.m.”
# [7] = in vivo; cited from earlier work
# D2 receptor = molecular target: T1, D2 receptor (Homo sapiens, UniProt P14416); test: ERK1/2 MAPK activation assay (phosphorylation immunoblot), D2 receptor; assay type: cell-based; conditions: 1 μM, 2 min, CHO-D2R (or HEK-D2R) cells
# T1 construct: expressed in transfected cells; host or cells: CHO-D2R (or HEK-D2R) cells
# T1 sequence (P14416 whole entry): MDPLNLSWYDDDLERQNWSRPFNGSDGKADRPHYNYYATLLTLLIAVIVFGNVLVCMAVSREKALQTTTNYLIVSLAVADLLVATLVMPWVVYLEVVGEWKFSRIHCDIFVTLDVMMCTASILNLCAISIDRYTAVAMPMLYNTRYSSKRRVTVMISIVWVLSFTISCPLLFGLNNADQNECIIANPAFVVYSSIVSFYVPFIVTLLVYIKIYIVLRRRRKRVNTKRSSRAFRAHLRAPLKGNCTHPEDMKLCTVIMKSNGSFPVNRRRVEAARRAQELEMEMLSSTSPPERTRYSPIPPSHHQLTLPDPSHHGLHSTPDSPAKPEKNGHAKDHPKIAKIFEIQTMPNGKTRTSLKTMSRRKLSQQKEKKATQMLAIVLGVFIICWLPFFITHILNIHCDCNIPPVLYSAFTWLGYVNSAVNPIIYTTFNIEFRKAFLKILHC
# Protocol: (§4) Selected compounds of the disclosure, as well as dopamine (DA) and PD128907 [a commercially available dopamine D2/D3 agonist; (4aR,10bR)-3,4a,4,10b-tetrahydro-4-propyl-2H,5H-[1]benzopyrano-[4,3-b]-1,4-oxazin-9-ol], were tested in an established ERK1/2 MAPK activation assay for dopamine D2 or D3 agonist activity. The results of these side-by-side tests, comprising immunoblot analysis of phosphorylated ERKT/2 MAPK, are illustrated in FIGS. 9-10.
# (§5) Functional screening was conducted with vehicle or test compounds using ERK1/2 phosphorylation as endpoint as described herein. 0.4×10^6 CHO-D3R (or HEK-D3R) and CHO-D2R (or HEK-D2R) cells were seeded in 6-well plates and cultured in 3 ml DMEM complete growth medium for 48 h. […]
# (§6) Cell lysates were assayed or protein content with DC Protein Assay Kit II (Bio-Rad). […] Total p44/42 MAPK levels in the same blots were also determined with rabbit anti-p44/42 MAPK monoclonal or polyclonal antibody (1:5000, Cell Signaling Technology) after stripping the blots of the same PVDF membrance. Chemiluminescence detection was performed using the SuperSignal West Dura Extended Duration Substrate detection kit (Thermo Scientific, Rockford, IL) and phosphorylated or total ERK1/2 MAPK immunoblots were quantified by densitometry with ImageQuant LAS4000 (GE Healthcare Bio-Sciences, Pittsburgh, PA). […]
# D3 receptor = molecular target: T2, D3 receptor (Homo sapiens, UniProt P35462); test: ERK1/2 MAPK activation assay (phosphorylation immunoblot), D3 receptor; assay type: cell-based; conditions: 1 μM, 2 min, CHO-D3R (or HEK-D3R) cells
# T2 construct: expressed in transfected cells; host or cells: CHO-D3R (or HEK-D3R) cells
# T2 sequence (P35462 whole entry): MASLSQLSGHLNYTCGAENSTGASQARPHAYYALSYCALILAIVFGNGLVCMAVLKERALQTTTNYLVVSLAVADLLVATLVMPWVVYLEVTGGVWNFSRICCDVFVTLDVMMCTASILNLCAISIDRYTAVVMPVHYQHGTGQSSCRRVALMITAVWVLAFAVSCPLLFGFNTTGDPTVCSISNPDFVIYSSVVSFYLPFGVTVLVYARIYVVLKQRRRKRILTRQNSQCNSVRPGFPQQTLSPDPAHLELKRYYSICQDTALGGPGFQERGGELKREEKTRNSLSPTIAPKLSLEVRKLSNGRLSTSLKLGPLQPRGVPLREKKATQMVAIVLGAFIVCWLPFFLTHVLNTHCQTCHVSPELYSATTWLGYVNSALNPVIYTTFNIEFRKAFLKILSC
# Protocol: as §4, §5, §6
SMILES,"pDAT levels, combined with / post cocaine (CC) (pDAT [1])","acquisition of self-administration of the compound (reinforcing effect) ([2]; FIG. 7A, 6-hr fixed ratio 1, PRX 0.25 mg/kg, SK609 4 mg/kg)","motivation for cocaine (breakpoints, lever presses) [3]",pDAT expression in striatal synaptosomes (pDAT [4]),"DA release ([5]; FIG. 3A, 4 mg/kg SK609 vs vehicle)","DA uptake (Vmax) ([5]; FIG. 3B, 4 mg/kg SK609 vs vehicle)",dopamine release at baseline [5],dopamine uptake at baseline [5],dopamine release after bath-applied cocaine [5],inhibition of dopamine uptake by cocaine [5],self-administration (injections taken) [6],"pDAT levels, compound on its own (pDAT [1]; FIG. 5A)","overall intake, post-cocaine ([2]; rat, in vivo)","cumulative intake, pre-cocaine ([2]; rat, in vivo, 10 days)",compulsive drug seeking behavior [7],ERK1/2 phosphorylation induced by activation of D2 receptor (D2 receptor),ERK1/2 phosphorylation induced by activation of D3 receptor (D3 receptor)
"CC(N)CCc1ccccc1Cl (stereo not drawn) [SK609, 4-(2-chlorophenyl)-butan-2-amine]",significantly reduced pDAT levels,not robust reinforcers,reduced motivation for cocaine,reduces expression of pDAT,disrupts dopamine (DA) release and uptake,disrupts dopamine (DA) release and uptake,reduce DA release and uptake,reduce DA release and uptake,significantly reduced DA release and uptake inhibition by cocaine,significantly reduced DA release and uptake inhibition by cocaine,does not support self-administration,–,–,–,–,–,–
"CCCN[C@H]1CCc2nc(N)sc2C1 [PRX, (S)-N^6-propyl-4,5,6,7-tetrahydro-1,3-benzothiazole-2,6-diamine, reference compound]",significant increase in pDAT levels,–,–,–,–,–,no effect on DA release or uptake,no effect on DA release or uptake,had no effect,had no effect,–,significant increase in pDAT levels,sustained higher overall PRX intake compared to SK609,higher cumulative intake of PRX compared to SK609,producing compulsive drug seeking behavior,–,–
"CC(N)CCc1ccc(Cl)cc1 (stereo not drawn) [SK608, 4-(4-chlorophenyl)-butan-2-amine]",significantly reduced pDAT levels,–,–,–,–,–,reduce DA release and uptake,reduce DA release and uptake,significantly reduced DA release and uptake inhibition by cocaine,significantly reduced DA release and uptake inhibition by cocaine,–,–,–,–,–,–,–
"CCCN1CCO[C@@H]2c3cc(O)ccc3OC[C@H]21 [PD128609, (4aR,10bR)-3,4a,4,10b-tetrahydro-4-propyl-2H,5H-[1]benzopyrano-[4,3-b]-1,4-oxazin-9-ol]",–,–,–,–,–,–,–,–,–,–,–,–,–,–,–,activated both D2 and D3 receptors,activated both D2 and D3 receptors
